Assay results from patent US20230167084A1, “TETRAHYDROISOQUINOLINE COMPOUNDS AS NRF2 ACTIVATORS” (C4X Discovery Limited, priority 2020, published 2023).

How the values were obtained:
[1] = test system: NRF2 mediated gene NAD(P)H:quinone acceptor oxidoreductase 1 (NQO1) in BEAS-2B cells; assay: Beas2B NQO1 mRNA Cell Based Assay; conditions: Homo sapiens, NQO1 mRNA increase compared to vehicle (0.1% DMSO), 24 h
Experimental: The up regulation of the NRF2 mediated gene NAD(P)H:quinone acceptor oxidoreductase 1 (NQO1) was measured using the following assay method: BEAS-2B cells (ATCC CRL-9609) were plated in 96-well clear plates at 20,000 cells/well in 75 μL of cell culture media and incubated overnight (37° C., 5% CO2). On day 2, 25 μL of compound or controls were added to the cells for 24 h. On day 3, the medium was aspirated from the plate and the Cells-to-CT™ 1-Step TaqMan® Kit (Ambion A25603) was used to perform expression analysis directly from cultured cells without RNA purification according to the manufacturer's instructions.
Briefly, cells were washed with ice cold PBS and 22.5 μL of room-temperature DNase/Lysis solution was added to the cells and incubated at room temperature for 5 minutes. To stop the reaction, 2.25 μL of stop solution was added to the cell lysate. The samples were diluted 1:5 using nuclease free water and 2.5 μL transferred into the PCR plate. Real-time PCR was performed using the C-1000 Thermal Cycler (Bio-Rad) using human beta actin as the internal control. The cDNA was amplified with a specific primer for NQO1 using the 1-step RT-PCR master mix (Ambion Cells-to-CT™ 1-Step TaqMan® Kit A25603). The primers/probes sets that were used for amplification of cDNA were obtained from TaqMan Gene Expression Assays (Applied Biosystems). The comparative CT (ΔΔCT) relative quantification method was used to calculate the relative mRNA level of the target gene NQO1 as described in the Applied Biosystems Chemistry Guide. The data are expressed as an increase in target gene mRNA compared to vehicle (0.1% DMSO) control and the EC50 values were determined by fitting the data to a four parameter logistic fit using XLfit or XE Runner within ActivityBase.

[2] = target: T1, human KEAP1 (N-term, residues 321-609) (Homo sapiens, UniProt Q14145); assay: KEAP1 Kelch Fluorescence Polarization (FP) Assay; type: binding; conditions: inhibition of Kelch domain-NRF2 interaction; 2 nM FITC-labelled NRF2 peptide, 25 nM KEAP1, 1 h at room temperature; compounds below 10 nM cannot be differentiated
T1 construct: human KEAP1 (N-term, residues 321-609) enzyme
Experimental: Inhibition of the Kelch domain-NRF2 interaction was determined using a fluorescence polarization-based competition assay in a black 384-well microplate. Compounds were tested at a starting concentration of 10 μM serially diluted 1:3 to generate a 12-point dose response curve on the Biomek FX robot. Each well contained 2 nM FITC-labelled NRF2 peptide (FITC-LDEETGEFL-NH2) and 25 nM human KEAP1 (N-term, residues 321-609) enzyme in a final volume of 20 μL of assay buffer (50 mM Tris-HCl pH 8.0, 100 mM NaCl, 5 mM MgCl2, 0.005% Tween-20, 0.005% BSA, 0.5% DMSO) in the presence of varying concentrations of test compound. Unlabelled peptide (LDEETGEFL-NH2) at 50 μM (negative control) and 0.5% DMSO (positive control) was used to determine the assay window.
After 1 h at room temperature, fluorescence polarization (excitation 470 nm/emission 530 nm) was measured using an Envision plate reader. IC50 values were determined by fitting the data to a four parameter logistic fit using XLfit or XE Runner within ActivityBase. The assay limit is such that compounds below 10 nM cannot be differentiated.

T1 sequence (Q14145 321-609): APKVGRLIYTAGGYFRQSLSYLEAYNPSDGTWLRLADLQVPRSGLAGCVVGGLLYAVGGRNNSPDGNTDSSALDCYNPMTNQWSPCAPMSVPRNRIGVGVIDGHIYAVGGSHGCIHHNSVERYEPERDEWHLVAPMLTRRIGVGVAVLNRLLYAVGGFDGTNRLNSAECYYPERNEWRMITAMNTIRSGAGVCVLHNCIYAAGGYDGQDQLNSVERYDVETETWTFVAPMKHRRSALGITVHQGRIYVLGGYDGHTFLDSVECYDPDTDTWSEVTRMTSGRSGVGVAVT

Row | SMILES | IC50 [2] [nM] | EC50 [1] [nM]
1 | Cn1nnc(COc2c(F)cc(Cl)c3c2[C@@H](CN2CC4(CC4)CC2=O)N(C(=O)[C@@H]2CCCC[C@]2(C)c2nnn[nH]2)CC3)c1C(F)F [Example 1, 5-(((S)-5-chloro-8-((5-(difluoromethyl)-1-methyl-1H-1,2,3-triazol-4-yl)methoxy)-7-fluoro-2-((1R,2S)-2-methyl-2-(1H-tetrazol-5-yl)cyclohexane-1-carbonyl)-1,2,3,4-tetrahydroisoquinolin-1-yl)methyl)-5-azaspiro[2.4]heptan-6-one] | 4.8 | 6.8
2 | Cn1nnc(COc2c(F)cc(Cl)c3c2[C@@H](CN2CCOCC2=O)N(C(=O)[C@@H]2CCCC[C@]2(C)C(=O)O)CC3)c1C(F)F [Example 2, (1S,2R)-2-((S)-5-chloro-8-((5-(difluoromethyl)-1-methyl-1H-1,2,3-triazol-4-yl)methoxy)-7-fluoro-1-((3-oxomorpholino)methyl)-1,2,3,4-tetrahydroisoquinoline-2-carbonyl)-1-methylcyclohexane-1-carboxylic acid] | 5.4 | 1.3
3 | C[C@@H]1CC(=O)N(C[C@@H]2c3c(c(Cl)cc(F)c3OCc3nnn(C)c3C(F)F)CCN2C(=O)[C@@H]2CCCC[C@]2(C)C(=O)O)C1 [Example 3, (1S,2R)-2-((S)-5-chloro-8-((5-(difluoromethyl)-1-methyl-1H-1,2,3-triazol-4-yl)methoxy)-7-fluoro-1-(((R)-4-methyl-2-oxopyrrolidin-1-yl)methyl)-1,2,3,4-tetrahydroisoquinoline-2-carbonyl)-1-methylcyclohexane-1-carboxylic acid] | 4.4 | 2.1
4 | Cc1nnc(COc2c(F)cc(Cl)c3c2[C@@H](CN2CC4(CC4)CC2=O)N(C(=O)[C@@H]2CCCC[C@]2(C)C(=O)O)CC3)n1C [Example 5, (1S,2R)-2-((S)-5-chloro-8-((4,5-dimethyl-4H-1,2,4-triazol-3-yl)methoxy)-7-fluoro-1-((6-oxo-5-azaspiro[2.4]heptan-5-yl)methyl)-1,2,3,4-tetrahydroisoquinoline-2-carbonyl)-1-methylcyclohexane-1-carboxylic acid] | 4.9 | 0.5

Second part, led by results:

Row | IC50 [2] [nM] | SMILES | EC50 [1] [nM]
5 | 5 | C[C@]1(C(=O)O)CCC[C@H]1C(=O)N1CCc2c(Cl)cc(F)c(OCc3nnn4c3CCCC4)c2[C@H]1CN1CC2(CC2)CC1=O [Example 4, (1S,2R)-2-((S)-5-chloro-7-fluoro-1-((6-oxo-5-azaspiro[2.4]heptan-5-yl)methyl)-8-((4,5,6,7-tetrahydro-[1,2,3]triazolo[1,5-a]pyridin-3-yl)methoxy)-1,2,3,4-tetrahydroisoquinoline-2-carbonyl)-1-methylcyclopentane-1-carboxylic acid] | 0.3
6 | 5 | Cn1cc(COc2c(F)cc(Cl)c3c2[C@@H](CN2CC4(CC4)CC2=O)N(C(=O)[C@@H]2CCCC[C@]2(C)C(=O)O)CC3)nn1 [Example 6, (1S,2R)-2-((S)-5-chloro-7-fluoro-8-((1-methyl-1H-1,2,3-triazol-4-yl)methoxy)-1-((6-oxo-5-azaspiro[2.4]heptan-5-yl)methyl)-1,2,3,4-tetrahydroisoquinoline-2-carbonyl)-1-methylcyclohexane-1-carboxylic acid] | 1
